Results published in patent US11596639B2, “Substituted indole Mcl-1 inhibitors” (Vanderbilt University, priority 2016, dated 2023).
Like-named read-outs stand apart in the source and are kept apart here.

Columns and labels:
Mcl-1 = Mcl-1 (Homo sapiens (Human), UniProt Q07820); assay: TR-FRET binding assay, FITC-Bak peptide and MBP-tagged Mcl-1; settings: read-out: Ki for Inhibition of Mcl-1 by TR-FRET assay
Description: Compounds are diluted in DMSO in a 16-point, semilog serial dilution scheme. […] The plate was mixed and incubated for 3 hours at room temperature. […] TR-FRET signal is plotted and IC50 and Ki values are calculated in the same manner as the fluorescence polarization anisotropy based competition assays.

[1] = tested on: H929 human cancer cell lines; assay: Cellular viability / proliferation (Cell TiterGlo, 72 h); format: cell-based
Method in brief: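 Top dose 50 μM, serially diluted 2-fold, applied one day after seeding (1,000 cells/well, 10% FBS), DMSO below 1%.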

[2] = Homo sapiens, NCI-H929, 72 h, read-out: GI50 on cellular proliferation of H929 human cancer cell lines, H929 cells, 72 h, Cell TiterGlo, 10% FBS

Sequence of Mcl-1 (Q07820 172-327): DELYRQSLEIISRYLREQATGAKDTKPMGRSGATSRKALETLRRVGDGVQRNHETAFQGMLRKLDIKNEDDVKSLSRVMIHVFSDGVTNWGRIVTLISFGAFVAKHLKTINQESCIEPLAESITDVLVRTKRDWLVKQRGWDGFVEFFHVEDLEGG

Row | Compound | Ki (Mcl-1) | GI50 [1, 2] | GI50 ([1]; H929 cells, 72 h, Cell TiterGlo, 10% FBS, read-out: GI50 on cellular proliferation of H929 human cancer cell lines)
1 | COc1ccc(N2C[C@@H](C)n3c(c(CCCOc4cc(C)c(Cl)c(C)c4)c4ccc(Cl)c(-c5c(C)nn(C)c5C)c43)C2=O)c2c1c(C(=O)O)cn2Cc1cc(C)ccn1 [Example 619, (R)-7-(7-chloro-10-(3-(4-chloro-3,5-dimethylphenoxy)propyl)-4-methyl-1-oxo-6-(1,3,5-trimethyl-1H-pyrazol-4-yl)-3,4-dihydropyrazino[1,2-a]indol-2(1H)-yl)-4-methoxy-1-((4-methylpyridin-2-yl)methyl)-1H-indole-3-carboxylic acid] | 0.26 nM | 470 nM | –
2 | Cc1cc(OCCCc2c3n(c4c(-c5c(C)nn(C)c5C)c(Cl)ccc24)[C@H](C)CN(c2cccc4cc(C(=O)O)n(Cc5cnn(C)n5)c24)C3=O)cc(C)c1Cl [Example 570, (R)-7-(7-chloro-10-(3-(4-chloro-3,5-dimethylphenoxy)propyl)-4-methyl-1-oxo-6-(1,3,5-trimethyl-1H-pyrazol-4-yl)-3,4-dihydropyrazino[1,2-a]indol-2(1H)-yl)-1-((2-methyl-2H-1,2,3-triazol-4-yl)methyl)-1H-indole-2-carboxylic acid] | < 0.2 nM | 560 nM | –
3 | COc1cc(N2C[C@@H](C)n3c(c(CCCOc4cc(C)c(Cl)c(C)c4)c4ccc(Cl)c(-c5c(C)ncnc5C)c43)C2=O)c2c(c1)cc(C(=O)O)n2Cc1cccc(C)n1 [Example 572, (R)-7-(7-chloro-10-(3-(4-chloro-3,5-dimethylphenoxy)propyl)-6-(4,6-dimethylpyrimidin-5-yl)-4-methyl-1-oxo-3,4-dihydropyrazino[1,2-a]indol-2(1H)-yl)-5-methoxy-1-((6-methylpyridin-2-yl)methyl)-1H-indole-2-carboxylic acid] | < 0.2 nM | 300 nM | –
4 | COCCn1cnc(-c2ccc3c(c2)c(N2C[C@@H](C)n4c(c(CCCOc5cc(C)c(Cl)c(C)c5)c5ccc(Cl)c(-c6c(C)nn(C)c6C)c54)C2=O)cn3C)n1 [Example 530, (R)-7-Chloro-10-(3-(4-chloro-3,5-dimethylphenoxy)propyl)-2-(S-(1-(2-methoxyethyl)-1H-1,2,4-triazol-3-yl)-1-methyl-1H-indol-3-yl)-4-methyl-6-(1,3,5-trimethyl-1H-pyrazol-4-yl)-3,4-dihydropyrazino[1,2-a]indol-1(2H)-one] | < 0.2 nM | – | 230 nM
5 | Cc1cc(N2C[C@@H](C)n3c(c(CCCOc4cc(C)c(Cl)c(C)c4)c4ccc(Cl)c(-c5c(C)ncnc5C)c43)C2=O)c2c(c1)cc(C(=O)O)n2Cc1cccc(C)n1 [Example 576, (R)-7-(7-chloro-10-(3-(4-chloro-3,5-dimethylphenoxy)propyl)-6-(4,6-dimethylpyrimidin-5-yl)-4-methyl-1-oxo-3,4-dihydropyrazino[1,2-a]indol-2(1H)-yl)-5-methyl-1-((6-methylpyridin-2-yl)methyl)-1H-indole-2-carboxylic acid] | < 0.2 nM | 350 nM | –
6 | Cc1cc(N2C[C@@H](C)n3c(c(CCCOc4cc(C)c(Cl)c(C)c4)c4ccc(Cl)c(-c5c(C)nn(C)c5C)c43)C2=O)c2c(c1)cc(C(=O)O)n2Cc1cc(N2CCCCC2)ccn1 [Example 504, (R)-7-(7-Chloro-10-(3-(4-chloro-3,5-dimethylphenoxy)propyl)-4-methyl-1-oxo-6-(1,3,5-trimethyl-1H-pyrazol-4-yl)-3,4-dihydropyrazino[1,2-a]indol-2(1H)-yl)-5-methyl-1-((4-(piperidin-1-yl)pyridin-2-yl)methyl)-1H-indole-2-carboxylic acid] | 0.23 nM | 1000 nM | –
7 | Cc1cc(OCCCc2c3n(c4c(-c5c(C)cc(OCc6ccccn6)cc5C)c(Cl)ccc24)[C@H](C)CN(c2cn(C)c4ccc(C(=O)O)cc24)C3=O)cc(C)c1Cl [Example 497, (R)-3-(7-chloro-10-(3-(4-chloro-3,5-dimethylphenoxy)propyl)-6-(2,6-dimethyl-4-(pyridin-2-ylmethoxy)phenyl)-4-methyl-1-oxo-3,4-dihydropyrazino[1,2-a]indol-2(1H)-yl)-1-methyl-1H-indole-5-carboxylic acid] | 1.3 nM | 1700 nM | –
8 | CCOCCn1c(C(=O)O)cc2cc(C)cc(N3C[C@@H](C)n4c(c(CCCOc5cc(C)c(Cl)c(C)c5)c5ccc(Cl)c(-c6c(C)nn(C)c6C)c54)C3=O)c21 [Example 579, (R)-7-(7-chloro-10-(3-(4-chloro-3,5-dimethylphenoxy)propyl)-4-methyl-1-oxo-6-(1,3,5-trimethyl-1H-pyrazol-4-yl)-3,4-dihydropyrazino[1,2-a]indol-2(1H)-yl)-1-(2-ethoxyethyl)-5-methyl-1H-indole-2-carboxylic acid] | < 0.2 nM | 240 nM | –
9 | Cc1cc(OCCCc2c3n(c4c(-c5c(C)nn(C)c5C)c(Cl)ccc24)[C@H](C)CN(c2cn(CC(=O)N(C)C)c4ccc(-c5ncn(Cc6ccccn6)n5)cc24)C3=O)cc(C)c1Cl [Example 638, (R)-2-(3-(7-Chloro-10-(3-(4-chloro-3,5-dimethylphenoxy)propyl)-4-methyl-1-oxo-6-(1,3,5-trimethyl-1H-pyrazol-4-yl)-3,4-dihydropyrazino[1,2-a]indol-2(1H)-yl)-5-(1-(pyridin-2-ylmethyl)-1H-1,2,4-triazol-3-yl)-1H-indol-1-yl)-N,N-dimethylacetamide] | 1.7 nM | 600 nM | –
10 | Cc1cc(OCCCc2c3n(c4c(-c5c(C)nn(C)c5C)c(Cl)ccc24)[C@H](C)CN(c2cc(CN4CCN(C)C(=O)C4)cc4cc(C(=O)O)n(C)c24)C3=O)cc(C)c1Cl [Example 628, (R)-7-(7-chloro-10-(3-(4-chloro-3,5-dimethylphenoxy)propyl)-4-methyl-1-oxo-6-(1,3,5-trimethyl-1H-pyrazol-4-yl)-3,4-dihydropyrazino[1,2-a]indol-2(1H)-yl)-1-methyl-5-((4-methyl-3-oxopiperazin-1-yl)methyl)-1H-indole-2-carboxylic acid] | < 0.2 nM | 440 nM | –
11 | Cc1cc(OCCCc2c3n(c4c(-c5c(C)nn(C)c5C)c(Cl)ccc24)[C@H](C)CN(c2cc(OC4CCN(C)C4)cc4cc(C(=O)O)n(C)c24)C3=O)cc(C)c1Cl (stereo partly drawn) [Example 521, 7-((R)-7-chloro-10-(3-(4-chloro-3,5-dimethylphenoxy)propyl)-4-methyl-1-oxo-6-(1,3,5-trimethyl-1H-pyrazol-4-yl)-3,4-dihydropyrazino[1,2-a]indol-2(1H)-yl)-1-methyl-5-((1-methylpyrrolidin-3-yl)oxy)-1H-indole-2-carboxylic acid] | < 0.2 nM | 610 nM | –
12 | Cc1cc(OCCCc2c3n(c4c(-c5c(C)nn(C)c5C)c(Cl)ccc24)[C@H](C)CN(c2cc(N(C)Cc4ccccn4)cc4c(C(=O)O)cn(C)c24)C3=O)cc(C)c1Cl [Example 564, (R)-7-(7-chloro-10-(3-(4-chloro-3,5-dimethylphenoxy)propyl)-4-methyl-1-oxo-6-(1,3,5-trimethyl-1H-pyrazol-4-yl)-3,4-dihydropyrazino[1,2-a]indol-2(1H)-yl)-1-methyl-5-(methyl(pyridin-2-ylmethyl)amino)-1H-indole-3-carboxylic acid] | 0.46 nM | 590 nM | –
13 | Cc1cc(OCCCc2c3n(c4c(-c5c(C)nn(C)c5C)c(Cl)ccc24)[C@H](C)CN(c2cc(OCc4ccccn4)cc4cc(C(=O)O)n(C)c24)C3=O)cc(C)c1Cl [Example 481, (R)-7-(7-Chloro-10-(3-(4-chloro-3,5-dimethylphenoxy)propyl)-4-methyl-1-oxo-6-(1,3,5-trimethyl-1H-pyrazol-4-yl)-3,4-dihydropyrazino[1,2-a]indol-2(1H)-yl)-1-methyl-5-(pyridin-2-ylmethoxy)-1H-indole-2-carboxylic acid] | < 0.2 nM | 240 nM | –
